According to patent US20050054629A1, “Compounds and methods of treating cell proliferative diseases” (priority 2002, published 2005):

Experiments:
MCF10-A = assay: Cytotoxicity assay (MTT), 6 days; format: cell-based; conditions: Homo sapiens, MCF-10A, 144 h, 6 days of treatment, read-out: Toxicity 6d (IC 50, μM) MCF10-A
In short: (§1)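 5.10^3 or 2.10^4 cells/well plated, dosed next day (0, 1, 10, 17.5, 25, 50 μM; DMSO 1%). 6 d exposure → MTT 0.5 mg/ml, 3 h 37° C → DMSO solubilization → A550. IC50 calc., n=3.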

MCF-7 breast carcinoma = assay: Cytotoxicity assay (MTT), 6 days; format: cell-based; conditions: Homo sapiens, MCF7, 144 h, 6 days of treatment, read-out: Toxicity 6d (IC 50, μM) MCF7
In short: as §1

MRC-5 = assay: Cytotoxicity assay (MTT), 6 days; format: cell-based; conditions: Homo sapiens, MRC5, 144 h, 6 days of treatment, read-out: Toxicity 6d (IC 50, μM) MRC-5
In short: as §1

NIH3T3 mouse fibroblasts = assay: Cytotoxicity assay (MTT), 6 days; format: cell-based; conditions: NIH3T3, 144 h, 6 days of treatment, read-out: Toxicity 6d (IC 50, μM) NIH3T3
In short: as §1

MDA231 = assay: Cytoskeleton analysis, actin staining (FITC-phalloidin); format: cell-based, human
Protocol: (§2) Since major rearrangements of cytoskeleton are observed in tumor cells and since the small GTPases are known to regulate these events, analysis of actin cytoskeleton was performed. Subconfluent cells seeded onto coverslips were treated with different concentration of compound (1, 10, 17.5, 25 and 50 μM) or vehicle for 24 h, before being fixed in 4% formaldehyde for 15 min., permeabilized in 0.2% Triton X100 for 5 minutes and incubated in PowerBlock (Biogenex) for 10 min. Actin filaments were stained with 0.5 μg/ml fluorescein isothiocyanate (FITC)-labelled phalloidin for 1 hour. Analysis was performed using an inverted fluorescent microscope.

MDA-MB-231 cells = assay: Migration assay (Boyden chamber, non-coated filters); format: cell-based, human; conditions: for Migration: MDA-MB-231, Boyden chamber
In short: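 MDA-MB-231 cells were pretreated overnight with compound (1, 10, 17.5, 25 and 50 μM), then 10^5 cells placed in the upper chamber in serum-free medium with 0.1% BSA plus compound; lower chamber held 10% FBS plus compound as chemoattractant. After 6 hours at 37° C on non-coated filters, migrated underside cells were stained and counted by microscopy.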

MMP-9 = assay: Gelatin zymography; format: cell-based, human; conditions: MDA-MB-231 supernatant
Protocol: (§3) The activity of the metalloproteases MMP-2 and MMP-9 was assayed using gelatinolytic zymography according to Lambert (Surgery 1997). Briefly, MDA-MB-231 cells were incubated overnight in serum-free medium supplemented with ITS liquid supplement (Sigma) with different concentrations of compound (1, 10, 17.5, 25 and 50 μM). Supernatant was collected and concentrated with Ultrafree 30 kDA (Millipore). Equal amount of proteins, as determined by Bradford measurement, were loaded onto a 10% w/v polyacrylamide gel containing 1% gelatin and 0.1% SDS (Novex). After electrophoresis, gels were washed in Novex Zymogram Renaturing buffer for 30 min at room temperature and incubated overnight at 37° C. in Novex Zymogram developing buffer. Gels were stained in Coomassie Brilliant Blue G-250, and the gelatinolytic activity was visualized as a clear band against the blue background of the stained gelatin.

MMP-2 = assay: Gelatin zymography; format: cell-based, human; conditions: MDA-MB-231 supernatant
Protocol: as §3

HCT116 = assay: Cytoskeleton analysis, actin staining (FITC-phalloidin); format: cell-based, human; conditions: HCT116 tumor cells
Protocol: as §2

H460 = assay: as above; format: cell-based, human; conditions: H460 tumor cells
Protocol: as §2

Row | SMILES | IC50 (MCF10-A) | IC50 (MCF-7 breast carcinoma) | IC50 (MRC-5) | IC50 (NIH3T3 mouse fibroblasts) | MDA-MB-231 spreading (MDA231) | Cell architecture modification actin staining MDA231 (MDA231; 24 h treatment) | concentration at which inhibition of serum-induced migration was observed (MDA-MB-231 cells) | Migration (MDA-MB-231 cells) | concentration inhibiting MMP-9 in a dose-dependant manner (zymogram gel) (MMP-9) | concentration inhibiting MMP-2 in a dose-dependant manner (zymogram gel) (MMP-2) | concentration at which dose-dependant increase in spreading and disruption of cell-to-cell junctions was observed (HCT116) | concentration at which dose-dependant increase in spreading and disruption of cell-to-cell junctions was observed (H460)
1 | CCCc1c(OCCCCCOc2coc(CO)cc2=O)ccc(Cl)c1Cl [EH22900, 5-[5-(3,4-Dichloro-2-propylphenyloxy)pentyloxy]-2-(hydroxymethyl)-4H-pyran-4-one] | > 50 µM | 50 µM | 25 µM | 30 µM | increased | cell spreading | 25 µM | inhibition | 5 µM | 5 µM |  | 
2 | C/C=C/c1oc(CO)cc(=O)c1OCCCCCOc1ccc(Cl)c(Cl)c1CCC [EH31101, (E)-3-[5-(3,4-Dichloro-2-propylphenyloxy)pentyloxy]-6-(hydroxymethyl)-2-(propen-1-yl)-4H-pyran-4-one] | 35 µM | 25 µM |  | > 50 µM |  |  | 10 µM | no effect | 0.1 µM | 0.1 µM | 10 µM | 25 µM
